# Measured values taken from US20080241943A1, “Subnanomolar Precipitator of Thiophilic Metals” (The Scripps Research Institute, priority 2004, published 2008).
# Experiments:
# [1] = Determination of solubility products (Ksp), reproducibility; type: physicochemical; settings: concentrations 1 mM-0.1 μM, pH 3-10, temperature 0-50° C.
# Method: (§1) Determination of solubility products (Ksp). Weight analysis (FIG. 2A): Ksp values were determined either by weighing the amount of precipitate 4a. Scale-up was required to provide sufficient material for analysis on conventional microbalances. The following procedure was used for this analysis: a 100 μL aliquot of a 200 mM stock of metal ion in water was incubated at room temperature with 2 mL of a 10 mM stock of ligand 3a in acetonitrile. After 10 minutes the precipitate was isolated by centrifugation for 5 min at 2,000×g, washed with acetonitrile (5 ml), methanol (5 ml) and dried in vacuo. Spectrophotometric analysis (FIG. 2B): A 10 μL aliquot of a 200 mM stock of metal ion in water was added to 200 μL of a 10 mM stock of ligand 3a in acetonitrile in a spin filter (Millipore). After 10 minutes at rt, the precipitate was removed by centrifugation at 2,000×g. Spectroscopic analysis of the supernatant was performed on a conventional microarray reader (PerSeptive Biosystems CytoFluor or Perkin Elmer HST 7000 plate reader).
# [2] = Precipitation of free ligand from aqueous CH3CN; type: physicochemical; settings: 10 mM 3a stock in CH3CN, room temperature
# Method: (§2) General procedure for thiophilic metal precipitation. A 10 μL aliquot of a 200 mM stock of metal ion in water was incubated at room temperature with 200 μL of a 10 mM stock of ligand 3a in CH3CN. Red precipitates from 3a appeared upon increasing the amount of water in the final reaction mixture to over 20% (v/v). The formation of these red precipitates provided an ideal tool for verification of sample quality. Red precipitates from 3a were readily removed by triturating the precipitate with acetonitrile.
# [3] = Thiophilic metal precipitation by ligand, panel of metal ions; type: physicochemical; settings: spectroscopic analyses; did not correlate with Ksp
# Method: as §2
# [4] = Thiophilic metal precipitation by ligand; type: physicochemical; settings: for metal salt concentration at which precipitation was visually apparent: 10% aqueous CH3CN
# Method: as §2
# [5] = Heavy metal competitions (precipitation in the presence of other metal ions); type: physicochemical; settings: mixtures containing Cu^2+
# Method: as §1
# Heavy metal competitions. A 167 μL aliquot of a 20 mM stock of metal ion in water was incubated at room temperature with 333 μL of a 10 mM stock of ligand 3a in acetonitrile. […] The supernatant was analyzed on a PerSeptive Biosystems CytoFluor or Perkin Elmer HST 7000 plate reader using excitation at 510 nm. […]
# [6] = Determination of the extent of metal precipitation (vapor atomic absorption of supernatant); type: physicochemical; settings: after reacting 6.7±0.01 mM Hg(OAc)2 with 6.7±0.01 mM 3a
# Method: Determination of the extent of metal precipitation. An 167 μL aliquot of a 20 mM stock of Hg(OAc)2 in water was incubated at room temperature with 333 μL of a 10 mM stock of ligand 3 in CH3CN. Precipitation occurred immediately. After 5 minutes the sample was centrifuged for 5 min at 14,000×g. The supernatant was removed and an aliquot submitted to vapor atomic absorption analysis (Galbraith Laboratories, Knoxyille, Tenn.).
# [7] = cited from earlier work
compound,measurement,setting,value
"S=C1SC(c2ccccc2)(c2ccccc2)c2ccccc21 [3a, 3,3-Diphenylbenzo[c]thiophene-1(3H)-thione]",deviation of Ksp values,[1],≤ 1%
same,amount of water in the final reaction mixture at which red precipitates from 3a appeared,[2],over 20 % (v/v)
same,rate of precipitation (order of metal ions),[3],Hg^2+>Pb^2+>Cd^2+>(Au^3+˜Cu^2+)>(Pd^2+˜Ni^2+)>(Co^2+˜Mo^2+˜Pt^2+)
same,metal salt concentration at which precipitation was visually apparent,[4]; CdCl2 added to 25 μM 3a,50 µM
same,metal salt concentration at which precipitation was visually apparent,[4]; Hg(OAc)2 added to 1 μM 3a,2 µM
same,metal salt concentration at which precipitation was visually apparent,[4]; Pb(OAc)2 added to 5 μM 3a,10 µM
same,"Cu^2+ tolerated in analysis of Hg^2+, Pb^2+ and Cd^2+",[5],500 equivalents
same,amount of Hg^2+ left in supernatant,[6],0.58 ± 0.03 µM
"CCCCCCCCCCc1ccc(C2(c3ccc(CCCCCCCCCC)cc3)SC(=S)c3ccccc32)cc1 [3b, 3,3-Bis(4-decylphenyl)benzo[c]thiophene-1(3H)-thione]",induction time of precipitation,[4]; by Hg^2+,> 5 min
same,induction time of precipitation,[4]; by Pb^2+,> 5 min
O=C(O)CN(CC(=O)O)c1ccc(-c2c3cc(F)c(=O)cc-3oc3cc(O)c(F)cc23)cc1OCCOc1cc([N+](=O)[O-])ccc1N(CC(=O)O)CC(=O)O [Fluo-5N],affinity to Cd^2+ relative to La^3+,[7]; at 1 μM,O-fold
same,affinity for La^3+ over Cd^2+,[7]; at 100 μM,2 fold
